Experimental data published in patent US20220204918A1, “CELL CULTURE MEDIA COMPRISING KETO ACIDS” (MERCK PATENT GMBH, priority 2019, published 2022).
Values after ≈ are worked out from the molar mass of the structure shown. Where a name gives a salt, the structure may show the parent alone. Each block holds one compound with its values, some of them ahead of it.

Columns and labels:
[1] = Solubility in water at 25° C. (saturated solution, residual mass after infrared drying); assay type: physicochemical; conditions: for Solubility 25° C. in g/kg (corresponding keto acid) / Solubility (amino acid) / maximum solubilities obtained in water: water; for Solubility 25° C. in g/kg (corresponding keto acid) / Solubility (amino acid): 25° C.; for maximum solubilities obtained in water: separate experiments
Experimental: After sedimentation, the solution was dried using infrared (120° C., 120 min) and the residual mass was determined in g/kg.

physchem = conditions: for solubility at 10 min: 25 °C, pH 7, aqueous with cosolvent or surfactant or cyclodextrin, thermodynamic from solid
Experimental: Increasing amounts of the keto acids and salts thereof were added to a cell culture feed formulation (Cellvento® 4Feed, MilliporeSigma) depleted in Ile and Leu. Similarly, increasing amount of Ile and Leu were added to the same feed formulation as a control. The total concentration of this feed formulation was 125 g/L and the pH was 7.0+/−0.2. In small scale experiments, after each addition of either the amino acid or the keto acid, the feed was agitated for 10 mins and turbidity was measured. The experiments were performed at room temperature (25° C.).

[2] = FB culture with other keto acids replacing their amino acid in the feed; assay type: cell-based
From the text: Other keto acids have been tested as replacement for their respective amino acids in FB experiments. A very similar behavior compared to Ile and Leu was observed when Val was replaced by keto Val in the feed (FIG. 17). Indeed, similar VCD and titer were observed compared to the positive control whereas the feed depleted in Val leads to a drastic decrease in the VCD, as well as a very low titer after day 7. […] Due to the structural similarity to keto Ile and keto Leu, the effect of keto Val on overall feed concentration and feed stability is similar to the other branched chain keto acids. 6× higher solubility when compared to Val was confirmed in water.
For phenylalanine (Phe) and its respective keto acid phenylpyruvate (FIG. 18), the amination reaction to build Phe in cell culture seemed to be slower than the amination reactions occurring for branched chain keto acids. […] Following that result, a condition where 2× the molar equivalent of Phe was used as a concentration of phenylpyruvate in the feed.

[3] = Feed stability: change in color, AUC of absorbance 300-600 nm over 90 days; assay type: physicochemical
Experimental: The stability of a feed containing Ile and Leu (Cellvento® 4Feed) was compared to the stability of the same feed depleted in Ile/Leu and with supplementation of either keto Leu or keto Ile. The feeds were prepared according to the standard protocol. The final pH was 7.0+/−0.2 and the feeds were stored at 4° C. or RT protected or exposed to light. The change in color of the formulations were monitored during 90 days by measuring the absorbance in the range from 300 nm to 600 nm (intervals of 5 nm). Conditions were compared by calculating the area under the curve (AUC) over time (between D0 and D90) of the baseline corrected area under the curve of the absorbance scan (300 nm-600 nm).

[4] = Feed stability: NH3 formed during 3 months storage (AUC of NH3 concentration); assay type: physicochemical; conditions: for less ammonia produced compared to control: 4° C.; for reduced ammonia level compared to control: RT
Experimental: Finally, the amount of ammonium ions formed during storage of the feed containing keto acids at 4° C. or RT was lower when compared to the feed containing the normal amino acids. To be able to evaluate the formation of the NH3 over the entire period of the stability study, the AUC of the NH3 concentration was calculated for the timeframe of 3 months to compare the conditions.

[5] = system: CHOK1GS suspension cell line expressing a human IgG1; experiment: 17-days fed-batch process with keto acid replacing amino acid in the feed; assay type: cell-based; conditions: for amount of NH3 produced compared to control: 17-days fed-batch
Experimental: For cell culture experiments, a CHOK1GS suspension cell line expressing a human IgG1, was used. Cells were cultivated in quadruplicate in Cellvento 4CHO medium (Merck Darmstadt, Germany) using 50 mL spin tubes with a starting culture volume of 30 mL and a seeding density of 2×10^5 cells/mL. Incubation was carried out at 37° C., 5% CO2, 80% humidity and an agitation of 320 rpm. The keto acids were added in the Feed (4Feed depleted in Ile and leu) instead of their respective amino acids. The pH of all the feeds was neutral (pH 7.0+/−0.2). The positive control contained the normal amino acids whereas the negative control contained the feed depleted in the respective amino acid and without addition of keto acid. Feeding was carried out at days 3, 5, 7, 10 and 14 at the following v/v ratios (3, 3, 6, 3 and 3%). Glucose was quantified daily and adjusted to 6 g/L using a 400 g/L glucose solution. The experiment was repeated at least 3 times.
The viable cell density (VCD) and viability were evaluated with a Vi-CELL XR (Beckman Coulter, Fullerton, Calif.). Metabolite concentrations were monitored using a Cedex Bio HT (Roche Diagnostics, Mannheim, Germany) based on spectrophotometric and turbidometric methods. Quantification of amino acids was carried out via UPLC after derivatization with the AccQ⋅TagUltra® reagent kit. Derivatization, chromatography and data analysis were carried out following the supplier recommendations (Waters, Milford, Mass.).
The productivity per cell per day was calculated daily by dividing the titer by the corrected integral VCD to take into account the dilution resulting from feeding. The overall specific productivity was determined by calculating the slope from the linear regression between titer and corrected integral VCD.

CHOK1GS cell line [6] = experiment: Serial passaging and batch experiment in Leu/Ile depleted Cellvento 4CHO with keto acids; assay type: cell-based; conditions: for initial keto acid concentration detected in form of the amino acid: day 3
From the text: To confirm that this is applicable in CHO systems, keto Leu or keto Ile were used as replacement for Leu and Ile respectively in a cell culture medium (Cellvento® 4CHO). A Leu/Ile depleted version of the formulation was produced and equimolar concentrations of keto Leu vs Leu and keto Ile vs Ile were used (FIG. 15). Cell growth and viability of a CHOK1GS cell line were monitored over several weeks in serial passaging experiments to make sure that the growth is not due to residual amounts of Leu or Ile. A batch experiment with a seeding density of 0.2 million cells/mL was designed and IgG production was measured over time. The production of the amino acids was followed with time using amino acids quantification in the spent medium.

[7] = Feed stability: precipitation during storage; assay type: physicochemical
Experimental: In addition, when using keto Leu instead of Leu in the feed, the precipitation of the feed was delayed. To observe precipitation, the 50 mL falcon tubes were turned back to see possible sedimentation on the bottom of the tube and pictures were taken. […] A complete inhibition of precipitation was not observed at RT exposed to light but the precipitation was delayed in the keto Leu condition. Whereas precipitation was observed starting at D49 for the control condition, initial precipitation appeared at D70 for the keto Leu condition.

[8] = system: CHODG44 cell line expressing an IgG1; experiment: Fed-batch with keto Leu, CHODG44; assay type: cell-based
CHOK1GS cell line [9] = experiment: Batch experiments with higher seeding densities and different Leu/keto Leu ratios; assay type: cell-based
Experimental: In a similar way, batch experiments with higher cell seeding densities were performed in media containing different ratios of Leu/keto Leu to understand which ratios are preferable when starting with higher cell densities (FIG. 16). The analytic used was the same as described above.
Finally, batch experiments with higher cell densities were performed to determine whether keto Leu is readily available when starting with high seeding densities or if a minimum concentration of free leucine has to be present to support growth and productivity in these conditions. For this experiment, a CHOK1GS cell line was seeded at 0.3, 0.6 or 1.10^6 cells/mL in a medium containing 0, 25, 50, 75, or 100% of keto Leu, the rest being added in form of Leucine.

[10] = equivalent molar concentration (1×)
[11] = Val replaced by keto Val in the feed
[12] = batch, seeding density 0.2 million cells/mL

Structure (SMILES): CSCCC(=O)C(=O)O [Alpha keto gamma methylthiobutyric acid sodium salt]
- Solubility 25° C. in g/kg (corresponding keto acid) [1]: >500 g/kg

Structure (SMILES): CSCC[C@H](N)C(=O)O [Methionine, reference compound]
- Solubility (amino acid) [1]: 52.9 g/kg

Structure (SMILES): CC[C@H](C)[C@H](N)C(=O)O [Isoleucine, reference compound]
- Solubility (amino acid) [1]: 32.4 g/kg
- solubility at 10 min (physchem): ~105 mM (≈ 13.8 mg/mL)

Structure (SMILES): CC(C)C[C@H](N)C(=O)[O-].[Na+] [Leu sodium salt, reference compound]
- maximum solubilities obtained in water [1]: 86.0 g/kg

Structure (SMILES): CC(C)C[C@H](N)C(=O)O [Leucine, reference compound]
- maximum solubilities obtained in water [1]: 22.1 g/kg
- Solubility (amino acid) [1]: 22.1 g/kg
- solubility at 10 min (physchem): ~90 mM (≈ 11.8 mg/mL)

Second part, led by results:

- Solubility 25° C. in g/kg (corresponding keto acid) [1]: 72 g/kg
Structure (SMILES): O=C([O-])C(=O)Cc1ccccc1.[Na+] [phenylpyruvate, Phenylpyruvic acid sodium salt]
- Phe in the spent medium vs control ([2]; 2× the molar equivalent of Phe): very similar amount
- VCD vs control ([2]; 2× the molar equivalent of Phe): restore
- titer vs control ([2]; 2× the molar equivalent of Phe): restore
- Phe in the supernatant compared to negative control [2, 10]: more Phe
- final reduction of titer [2, 10]: 20%
- VCD vs control ([2]; equivalent molar concentration (1×), after day 5): significant lower VCD

- higher solubility when compared to Val ([1]; in water): 6 ×
- Solubility 25° C. in g/kg (corresponding keto acid) [1]: 362 g/kg
Structure (SMILES): CC(C)C(=O)C(=O)[O-].[Na+] [keto Val, α-Ketoisovaleric acid sodium salt]
- NH3 concentration [2, 11]: lower
- VCD compared to positive control [2, 11]: similar
- titer compared to positive control [2, 11]: similar

- Solubility 25° C. in g/kg (corresponding keto acid) [1]: 480 g/kg
- times more soluble than the amino acid (physchem): at least 6 times
- solubility at 10 min (physchem): ≥ 635 mM
- decrease of AUC (change in color) vs control ([3]; 4° C., light exposed): 68%
- decrease of AUC (change in color) vs control ([3]; 4° C., light protected): 33%
- decrease of AUC (change in color) vs control ([3]; RT, light exposed): 38%
- decrease of AUC (change in color) vs control ([3]; RT, light protected): no decrease
- less ammonia produced compared to control ([4]; light exposed): 24%
- less ammonia produced compared to control ([4]; light protected): 21%
- reduced ammonia level compared to control ([4]; light exposed): 25%
- reduced ammonia level compared to control ([4]; light protected): 28%
Structure (SMILES): CCC(C)C(=O)C(=O)[O-].[Na+] (stereo not drawn) [keto Ile, 3-Methyl-2-oxopentanoic acid sodium salt]
- amount of NH3 produced compared to control [5]: significantly reduced
- allo-Ile peak in spent medium ([5]; Ile replaced with keto Ile): increased with time
- concentration of Ile in the spent medium vs positive control ([5]; Ile replaced with keto Ile): significantly lower
- IgG vs control (CHOK1GS cell line [6]; [12]): slightly impaired
- growth / performance vs control (CHOK1GS cell line [6]; [12]): slightly impaired
- initial keto acid concentration detected in form of the amino acid (CHOK1GS cell line [6]; spent medium): 21%
- initial keto Ile concentration detected in the form of allo-Ile (CHOK1GS cell line [6]; spent medium, up to day 10): 35%

- Solubility (amino acid) [1]: 58.5 g/kg
Structure (SMILES): CC(C)[C@H](N)C(=O)O [Valine, reference compound]

- Solubility (amino acid) [1]: 26.8 g/kg
Structure (SMILES): N[C@@H](Cc1ccccc1)C(=O)O [Phenylalanine, reference compound]

- maximum solubilities obtained in water [1]: 313.7 g/kg
- Solubility 25° C. in g/kg (corresponding keto acid) [1]: 313.7 g/kg
- times more soluble than the amino acid (physchem): 2.6 times
- solubility at 10 min (physchem): 240 mM
- decrease of AUC (change in color) vs control ([3]; 4° C., light exposed): 8%
- decrease of AUC (change in color) vs control ([3]; 4° C., light protected): 27%
- decrease of AUC (change in color) vs control ([3]; RT, light exposed): 37%
- decrease of AUC (change in color) vs control ([3]; RT, light protected): 31%
- amount and color intensity of precipitate vs control ([7]; RT light exposed, days after D70): lower
- precipitation ([7]; RT light protected): no precipitation
- less ammonia produced compared to control ([4]; light exposed): 19%
- less ammonia produced compared to control ([4]; light protected): 10%
- reduced ammonia level compared to control ([4]; light exposed): 5%
- reduced ammonia level compared to control ([4]; light protected): 15%
Structure (SMILES): CC(C)CC(=O)C(=O)[O-].[Na+] [keto Leu, 4-Methyl-2-oxopentanoic acid sodium salt]
- amount of NH3 produced compared to control [5]: significantly reduced
- concentration of Leu in the spent medium vs positive control ([5]; Leu replaced with keto Leu): slightly lower
- IgG titer compared to control [8]: slightly lower
- Leu concentration in spent media vs control [8]: nearly similar
- VCD compared to control [8]: lower VCD
- overall specific productivity [8]: slightly increased
- growth / performance vs control (CHOK1GS cell line [6]; [12]): comparable
- initial keto acid concentration detected in form of the amino acid (CHOK1GS cell line [6]; spent medium): 34%
- keto Leu share at which highest VCD was observed (CHOK1GS cell line [9]; seeding 0.6.10^6 and 0.3.10^6 cells/mL): 50%
- titer between ratios keto Leu/Leu (CHOK1GS cell line [9]; seeding at 0.3 and 1.10^6 cells/mL): no significant difference
- IgG concentration between ratios keto Leu/Leu (CHOK1GS cell line [9]; seeding at 0.6.10^6 cells/mL): slight trend
- keto Leu exchange at which maximum VCD was observed (CHOK1GS cell line [9]; seeding density 1.10^6 cells/mL): 100%
